Biological target: T1, Aromatase (Homo sapiens, UniProt P11511)
T1 sequence (P11511 whole entry): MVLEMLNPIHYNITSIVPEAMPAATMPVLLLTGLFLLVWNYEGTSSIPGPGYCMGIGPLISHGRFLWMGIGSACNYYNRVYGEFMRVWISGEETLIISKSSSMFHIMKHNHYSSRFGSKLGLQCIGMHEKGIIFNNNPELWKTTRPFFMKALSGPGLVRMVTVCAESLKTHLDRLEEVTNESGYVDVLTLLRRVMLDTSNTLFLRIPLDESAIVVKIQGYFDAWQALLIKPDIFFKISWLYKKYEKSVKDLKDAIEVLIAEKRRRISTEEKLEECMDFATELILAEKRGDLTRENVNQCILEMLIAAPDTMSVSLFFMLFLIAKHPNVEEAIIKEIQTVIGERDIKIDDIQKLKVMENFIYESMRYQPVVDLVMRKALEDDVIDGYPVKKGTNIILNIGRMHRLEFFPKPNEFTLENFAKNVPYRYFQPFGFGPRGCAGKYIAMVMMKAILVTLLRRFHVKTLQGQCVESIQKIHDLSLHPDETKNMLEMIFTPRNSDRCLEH

Point of comparison: `COc1ccc(/C=C2/C[C@H]3[C@@H]4CC[C@H]5C[C@@H](OC(=O)C(F)(F)F)CC[C@]5(C)[C@H]4CC[C@]3(C)C2=O)cc1`, IC50 7000 nM. Against it:
- CCCCC(=O)O[C@@H]1C[C@@H]2[C@H](CC[C@]3(C)C(=O)CC[C@@H]23)[C@@]2(C)CCC(=O)C=C12 — 4.7-fold lower, 1500 nM
- C[C@]12CC[C@H](O)C[C@@H]1CC[C@@H]1[C@@H]2CC[C@]2(C)C3=NN(c4ccccc4)[C@H](c4ccccc4)[C@H]3C[C@@H]12 — within 1.5-fold, 6010 nM
- C[C@]12CC[C@@H]3C4CCC(=O)C=C4CC[C@H]3[C@@H]1CCC2=O (stereo not given in full) — 5.8-fold lower, 1200 nM
- CCCC(=O)O[C@@H]1C[C@@H]2[C@H](CC[C@]3(C)C(=O)CC[C@@H]23)[C@@]2(C)CCC(=O)C=C12 — 2.6-fold lower, 2700 nM
- CCCC(=O)O[C@H]1C[C@@H]2[C@H](CC[C@]3(C)C(=O)CC[C@@H]23)[C@@]2(C)CCC(=O)C=C12 — 35-fold lower, 200 nM
- CCOC1=C[C@@H]2[C@H](CC[C@]3(C)C(=O)CC[C@@H]23)[C@@]2(C)CCC(=O)C=C12 — 9.3-fold lower, 750 nM
- CO[C@@H]1C[C@@H]2[C@H](CC[C@]3(C)C(=O)CC[C@@H]23)[C@@]2(C)CCC(=O)C=C12 — 41-fold lower, 170 nM
- C[C@@H]1C[C@@]2(CO)C(=CC1=O)CC[C@@H]1[C@@H]2CC[C@]2(C)C(=O)CC[C@@H]12 — 1.6-fold higher, 11000 nM
- C[C@]12C[C@@H](O)C(=O)C=C1CC[C@@H]1[C@@H]2CC[C@]2(C)C(=O)CC[C@@H]12 — 2.2-fold higher, 15300 nM
- CSC1=C2CC[C@@H]3[C@H](CC[C@]4(C)C(=O)CC[C@@H]34)[C@@]2(C)CCC1=O — 1.6-fold lower, 4400 nM
- CC(=O)N1N=C2[C@H](C[C@H]3[C@@H]4CC[C@H]5CC(=O)CC[C@]5(C)[C@H]4CC[C@]23C)[C@H]1c1ccccc1 — within 1.5-fold, 4910 nM
- COCOC1=C2CC[C@@H]3[C@H](CC[C@]4(C)C(=O)CC[C@@H]34)[C@@]2(C)CCC1=O — 1.6-fold lower, 4400 nM
- CCO[C@@H]1C[C@@H]2[C@H](CC[C@]3(C)C(=O)CC[C@@H]23)[C@@]2(C)C=CC(=O)C=C12 — 12-fold lower, 560 nM
- CN1N=C2[C@H](C[C@H]3[C@@H]4CCC5=CC(=O)C=C[C@]5(C)[C@H]4CC[C@]23C)[C@H]1c1ccccc1 — 2.9-fold lower, 2450 nM
- C[C@]12CCC(=O)C[C@@H]1CC[C@@H]1[C@@H]2CC[C@]2(C)C3=NN(c4ccccc4)[C@H](c4ccccc4)[C@H]3C[C@@H]12 — 1.6-fold lower, 4270 nM
- C[C@]12CCC(=O)C=C1[C@@H](Oc1ccccc1)C[C@@H]1[C@@H]2CC[C@]2(C)C(=O)CC[C@@H]12 — 70-fold lower, 100 nM
- C[C@]12C=CC(=O)C=C1[C@@H](OCc1ccccc1)C[C@@H]1[C@@H]2CC[C@]2(C)C(=O)CC[C@@H]12 — 3.7-fold lower, 1900 nM
- COc1ccc([C@@H]2[C@H]3C[C@H]4[C@@H]5CC[C@H]6C[C@@H](OC(=O)C(F)(F)F)CC[C@]6(C)[C@H]5CC[C@]4(C)C3=NN2C)cc1 — within 1.5-fold, 5780 nM
- C[C@]12CCC(=O)C(SCCl)=C1CC[C@@H]1C2=CC[C@]2(C)C(=O)CC[C@@H]12 — 8.1-fold lower, 859 nM
- CCOC1=C[C@@H]2[C@H](CC[C@]3(C)C(=O)CC[C@@H]23)[C@@]2(C)C=CC(=O)C=C12 — 7.4-fold lower, 951 nM
- C[C@]12C=CC(=O)C=C1C=C(CCc1ccccc1)[C@@H]1[C@@H]2CC[C@]2(C)C(=O)CC[C@@H]12 — 41-fold lower, 172 nM
- C[C@]12C[C@@H](Cl)C(=O)C=C1CC[C@@H]1[C@@H]2CC[C@]2(C)C(=O)CC[C@@H]12 — 5-fold lower, 1400 nM
- C[C@]12C=CC(=O)C=C1CC[C@@H]1[C@@H]2CC[C@]2(C)C3=NN(c4ccccc4)[C@H](c4ccccc4)[C@H]3C[C@@H]12 — 3.5-fold lower, 1980 nM
- CN1N=C2[C@H](C[C@H]3[C@@H]4CC[C@H]5C[C@@H](O)CC[C@]5(C)[C@H]4CC[C@]23C)[C@H]1c1ccccc1 — within 1.5-fold, 6340 nM
- CCCCO[C@H]1C[C@@H]2[C@H](CC[C@]3(C)C(=O)CC[C@@H]23)[C@@]2(C)CCC(=O)C=C12 — 9-fold lower, 780 nM
- CCO[C@@H]1C[C@@]2(C)C(=CC1=O)CC[C@@H]1[C@@H]2CC[C@]2(C)C(=O)CC[C@@H]12 — 1.7-fold higher, 11800 nM
- COc1ccc([C@@H]2[C@H]3C[C@H]4[C@@H]5CC[C@H]6C[C@@H](O)CC[C@]6(C)[C@H]5CC[C@]4(C)C3=NN2c2ccccc2)cc1 — within 1.5-fold, 5920 nM
- C[C@@H]1C[C@@]2(C=O)C(=CC1=O)CC[C@@H]1[C@@H]2CC[C@]2(C)C(=O)CC[C@@H]12 — 1.7-fold higher, 12000 nM
- COc1ccc([C@@H]2[C@H]3C[C@H]4[C@@H]5CC[C@H]6CC(=O)CC[C@]6(C)[C@H]5CC[C@]4(C)C3=NN2C(C)=O)cc1 — within 1.5-fold, 4890 nM
- COC1=C[C@@H]2[C@H](CC[C@]3(C)C(=O)CC[C@@H]23)[C@@]2(C)C=CC(=O)C=C12 — 8.8-fold lower, 800 nM
- CC1(C)C[C@@]2(C=O)C(=CC1=O)CC[C@@H]1[C@@H]2CC[C@]2(C)C(=O)CC[C@@H]12 — 12-fold lower, 600 nM
- C[C@]12CCC(=O)C(S)=C1CC[C@@H]1[C@@H]2CC[C@]2(C)C(=O)CC[C@@H]12 — 2-fold lower, 3500 nM
- CCCCO[C@@H]1C[C@@H]2[C@H](CC[C@]3(C)C(=O)CC[C@@H]23)[C@@]2(C)CCC(=O)C=C12 — 17-fold lower, 420 nM
- CCCCCC(=O)O[C@H]1C[C@@H]2[C@H](CC[C@]3(C)C(=O)CC[C@@H]23)[C@@]2(C)C=CC(=O)C=C12 — 33-fold lower, 210 nM
- CCCCCCCC(=O)O[C@@H]1C[C@@H]2[C@H](CC[C@]3(C)C(=O)CC[C@@H]23)[C@@]2(C)CCC(=O)C=C12 — 4.7-fold lower, 1500 nM
- C[C@]12C[C@@H](Br)C(=O)C=C1CC[C@@H]1[C@@H]2CC[C@]2(C)C(=O)CC[C@@H]12 — 3.2-fold lower, 2200 nM
- CC(=O)O[C@H]1[C@@H](n2ccnc2)C[C@H]2[C@@H]3CC=C4C[C@@H](N5CCCC5)CC[C@]4(C)[C@H]3CC[C@@]21C — within 1.5-fold, 4900 nM
- CO[C@@H]1C[C@@]2(C)C(=CC1=O)CC[C@@H]1[C@@H]2CC[C@]2(C)C(=O)CC[C@@H]12 — 1.7-fold higher, 11800 nM
- CCCCCC(=O)O[C@H]1C[C@@H]2[C@H](CC[C@]3(C)C(=O)CC[C@@H]23)[C@@]2(C)CCC(=O)C=C12 — 80-fold lower, 87.9 nM
- CCCCCCC(=O)O[C@@H]1C[C@@H]2[C@H](CC[C@]3(C)C(=O)CC[C@@H]23)[C@@]2(C)CCC(=O)C=C12 — 4.7-fold lower, 1500 nM
- CCC(=O)N1N=C2[C@H](C[C@H]3[C@@H]4CC[C@H]5C[C@@H](OC(=O)C(F)(F)F)CC[C@]5(C)[C@H]4CC[C@]23C)[C@H]1c1ccc(OC)cc1 — within 1.5-fold, 6610 nM
- C[C@]12C=CC(=O)C=C1CC[C@@H]1[C@@H]2CC[C@]2(C)C(=O)C(Br)C[C@@H]12 (stereo not given in full) — 1.9-fold higher, 13200 nM
- CO[C@@H]1C[C@@H]2[C@H](CC[C@]3(C)C(=O)CC[C@@H]23)[C@@]2(C)C=CC(=O)C=C12 — 11-fold lower, 619 nM
- CCCCCCC(=O)O[C@H]1C[C@@H]2[C@H](CC[C@]3(C)C(=O)CC[C@@H]23)[C@@]2(C)CCC(=O)C=C12 — 74-fold lower, 95.1 nM
- C/C=C1\CC[C@@]2(C)[C@@H](CC[C@@H]3[C@@H]2CC[C@]2(C)C4=NN(C)[C@H](c5ccccc5)[C@H]4C[C@@H]32)C1 — 2-fold lower, 3510 nM
- COc1ccc([C@@H]2[C@H]3C[C@H]4[C@@H]5CC[C@H]6CC(=O)CC[C@]6(C)[C@H]5CC[C@]4(C)C3=NN2c2ccccc2)cc1 — 1.7-fold lower, 4160 nM
- CCC(=O)N1N=C2[C@H](C[C@H]3[C@@H]4CC[C@H]5C[C@@H](OC(=O)C(F)(F)F)CC[C@]5(C)[C@H]4CC[C@]23C)[C@H]1c1ccccc1 — within 1.5-fold, 6710 nM
- CSCSC1=C2CC[C@@H]3C(=CC[C@]4(C)C(=O)CC[C@@H]34)[C@@]2(C)CCC1=O — 5.8-fold lower, 1200 nM
- CCC(=O)O[C@H]1C[C@@H]2[C@H](CC[C@]3(C)C(=O)CC[C@@H]23)[C@@]2(C)CCC(=O)C=C12 — 33-fold lower, 210 nM
- C[C@]12CCCC[C@@H]1CC[C@@H]1[C@@H]2CC[C@]2(C)C(=O)CC[C@@H]12 — 3-fold lower, 2300 nM
- C[C@]12CCC(=O)C=C1[C@H](OCc1ccccc1)C[C@@H]1[C@@H]2CC[C@]2(C)C(=O)CC[C@@H]12 — 82-fold lower, 84.9 nM
- COC1=C[C@@H]2[C@H](CC[C@]3(C)C(=O)CC[C@@H]23)[C@@]2(C)CCC(=O)C=C12 — 10-fold lower, 700 nM
- COc1ccc(/C=C2/C[C@H]3[C@@H]4CC[C@H]5C[C@@H](O)CC[C@]5(C)[C@H]4CC[C@]3(C)C2=O)cc1 — within 1.5-fold, 7130 nM
- COc1ccc([C@@H]2[C@H]3C[C@H]4[C@@H]5CCC6=CC(=O)C=C[C@]6(C)[C@H]5CC[C@]4(C)C3=NN2C(C)=O)cc1 — 2.6-fold lower, 2650 nM
- C[C@]12CC[C@@H]3C4CCC(=O)C=C4C(=O)C[C@H]3[C@@H]1CCC2=O (stereo not given in full) — 1.7-fold higher, 12000 nM
- C[C@]12C=CC(=O)C=C1C=C(c1ccccc1)[C@@H]1[C@@H]2CC[C@]2(C)C(=O)CC[C@@H]12 — 3.2-fold lower, 2220 nM
- CCCCCC(=O)O[C@@H]1C[C@@H]2[C@H](CC[C@]3(C)C(=O)CC[C@@H]23)[C@@]2(C)CCC(=O)C=C12 — 13-fold lower, 530 nM
- COCSC1=C2CC[C@@H]3[C@H](CC[C@]4(C)C(=O)CC[C@@H]34)[C@@]2(C)CCC1=O — within 1.5-fold, 10000 nM
- CCCCCC(=O)O[C@@H]1C[C@@H]2[C@H](CC[C@]3(C)C(=O)CC[C@@H]23)[C@@]2(C)C=CC(=O)C=C12 — 3.9-fold lower, 1800 nM

Reference: ChEMBL document CHEMBL5241054, “Effective anti-aromatase therapy to battle against estrogen-mediated breast cancer: Comparative SAR/QSAR assessment on steroidal aromatase inhibitors” (Eur J Med Chem, 2020)
